Experimental findings from patent publication US12522607B2, “Substituted pyrazolo[3,4-d]pyrimidines as wee-1 inhibitors” (WIGEN BIOMEDICINE TECHNOLOGY (SHANGHAI) CO., LTD., priority 2020, dated 2026) are described below.

The target of assay [1] is T1, Wee-1 kinase (Homo sapiens, UniProt P30291).
T1 construct: purchased Invitrogen
Put plainly: Inhibitory activity against Wee-1 kinase (Lanthra Screen Wee-1 kinase kit, Tracer 178). The format is binding. Conditions: Wee-1 kinase 5 nM, Tracer 178 50 nM, 1 h room temperature. In short, it runs like this:
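LanthaScreen binding format: Wee-1 kinase (5 nM final) with Eu-anti-GST antibody (2 nM final) and kinase Tracer 178 (50 nM final), compounds serially diluted in DMSO. 1 h at room temperature before reading. IC50 relative to DMSO control.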

In assay [2] the test system is HT29 cells. Put plainly: Antiproliferative activity against HT29 cells (Cell Titer-Lumi, ATP content). Format: cell-based. Particulars: Homo sapiens, HT-29, 72 after compound addition, read-out: HT-29 cells Anti-proliferative activity (IC50 for the inhibition against HT-29 cell growth). The method in brief: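 3000 cells per well, allowed to adhere overnight, then exposed to a gradient dilution of compound for 72 (units as printed). Cellular ATP read by luminescence (Cell Titer-Lumi) as a growth measure; IC50 for growth inhibition calculated.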

Broadly, the IC50 is the point on the concentration scale where inhibition reaches its midpoint.

T1 sequence (P30291 whole entry): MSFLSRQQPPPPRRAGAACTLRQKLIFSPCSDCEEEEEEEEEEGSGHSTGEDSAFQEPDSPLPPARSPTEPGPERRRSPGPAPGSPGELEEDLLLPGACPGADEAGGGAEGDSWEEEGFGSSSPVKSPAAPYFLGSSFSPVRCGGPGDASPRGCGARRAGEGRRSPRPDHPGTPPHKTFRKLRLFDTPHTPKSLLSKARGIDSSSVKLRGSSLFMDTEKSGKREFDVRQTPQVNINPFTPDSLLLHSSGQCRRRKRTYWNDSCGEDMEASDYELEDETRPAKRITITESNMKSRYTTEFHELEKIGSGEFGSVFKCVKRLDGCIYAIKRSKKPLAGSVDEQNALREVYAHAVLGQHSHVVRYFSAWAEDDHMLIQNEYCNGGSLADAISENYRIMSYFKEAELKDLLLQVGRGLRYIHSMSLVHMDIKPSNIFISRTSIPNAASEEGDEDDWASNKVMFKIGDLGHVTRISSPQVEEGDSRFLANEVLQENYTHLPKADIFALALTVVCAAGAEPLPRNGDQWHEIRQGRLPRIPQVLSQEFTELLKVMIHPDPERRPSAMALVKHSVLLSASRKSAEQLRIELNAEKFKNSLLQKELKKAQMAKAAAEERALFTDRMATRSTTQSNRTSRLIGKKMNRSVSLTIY

As for `C=CCn1c(=O)c2cnc(Nc3ccc(N4C[C@@H](C)N(C)[C@@H](C)C4)c(C(F)(F)F)c3)nc2n1-c1ccc(=O)n(C(C)C)n1` [Compound 123], the IC50 in assay [1] is not above 0.03 µM; in assay [2], not above 1 µM.

On to `C=CCn1c(=O)c2cnc(Nc3ccc4c(c3)CN(C)C4(C)C)nc2n1-c1ccc(=O)n(C(C)C)n1` [Compound 224], for which the IC50 was not above 0.03 µM in assay [1] and not above 1 µM in assay [2].

As for `CCn1c(=O)c2cnc(Nc3ccc(N4CCN(C)CC4)cc3)nc2n1-c1ccc(=O)n(C(C)C)c1` [Compound 299], the IC50 in assay [1] is not above 0.03 µM; in assay [2], not above 1 µM.

Turning to `CN1Cc2cc(Nc3ncc4c(=O)n(C5CC5)n(-c5ccc(=O)n(C(C)(C)C)n5)c4n3)ccc2C2(CC2)C1` [Compound 295], the IC50 in assay [1] was not above 0.03 µM; in assay [2], not above 1 µM.

In the case of `CCn1c(=O)c2cnc(Nc3ccc(N4CCN(C)CC4)cc3)nc2n1-c1ccc(=O)n(C(C)(C)C)c1` [Compound 330], the half-inhibitory concentration (IC50) in assay [1] was not above 0.03 µM; in assay [2], not above 1 µM.

Regarding `C=CCn1c(=O)c2cnc(Nc3ccc(N4CC[C@H](N(C)C)C4)cc3)nc2n1-c1ccc(=O)n(C(C)C)n1` [Compound 92], the IC50 is not above 0.03 µM in assay [1] and not above 1 µM in assay [2].

For the compound `C=CCn1c(=O)c2cnc(Nc3ccc(N4CCC5(CNC5)C4)c(C)c3)nc2n1-c1ccc(=O)n(C(C)C)n1` [Compound 170], the IC50 in assay [1] was not above 0.03 µM; in assay [2] it was not above 1 µM.

With `C=CCn1c(=O)c2cnc(Nc3ccc(N4C[C@H](C)N(C)C[C@H]4C)c(C)c3)nc2n1-c1ccc(=O)n(C(C)C)n1` [Compound 127], the IC50 in assay [1] is not above 0.03 µM; in assay [2], not above 1 µM.

For `C=CCn1c(=O)c2cnc(Nc3ccc(N4CCN(C)CC4)cc3)nc2n1-c1ccc(=O)n(CC)n1` [Compound 2], the IC50 in assay [1] is more than 0.1 µM; in assay [2], more than 3 µM.

As for `C=CCn1c(=O)c2cnc(Nc3ccc(C4CCNCC4)cc3)nc2n1-c1ccc(=O)n(C(C)C)n1` [Compound 190], the results for the concentration for half-maximal inhibition (IC50) in assay [1] and in assay [2] were not above 0.03 µM and not above 1 µM, respectively.

Take `CC(C)n1cc(-n2c3nc(Nc4ccc5c(c4)CN(C)CC54CC4)ncc3c(=O)n2C(C)C)ccc1=O` [Compound 306]: the values for the IC50 in assay [1] and in assay [2] were not above 0.03 µM and not above 1 µM, respectively.

`C=CCn1c(=O)c2cnc(Nc3ccc(N4C[C@@H](C)N(C)[C@@H](C)C4)cc3)nc2n1-c1ccc(=O)n(C(C)C)n1` [Compound 117]: the IC50 is not above 0.03 µM in assay [1] and not above 1 µM in assay [2].

`C=CCn1c(=O)c2cnc(Nc3ccc(N4CCNCC4)c(CO)c3)nc2n1-c1ccc(=O)n(C(C)C)c1` [Compound 51]: the figures for the IC50 in assay [1] and in assay [2] were 0.03 to 0.1 µM and 1 to 3 µM, respectively.

For `C=CCn1c(=O)c2cnc(Nc3cc(F)c(N4CCNCC4)c(Cl)c3)nc2n1-c1ccc(=O)n(C(C)C)n1` [Compound 59], the IC50 in assay [1] is not above 0.03 µM; in assay [2], not above 1 µM.

In the case of `C=CCn1c(=O)c2cnc(Nc3ccc(N4CC(N(C)C)C4)cc3)nc2n1-c1ccc(=O)n(C(C)C)n1` [Compound 77], the IC50 in assay [1] was not above 0.03 µM; in assay [2], not above 1 µM.

Consider `CC(C)n1c(=O)c2cnc(Nc3ccc(N4CCN(C)CC4)cc3)nc2n1-c1ccc(=O)n(C(C)(C)C)c1` [Compound 334], for which the IC50 was not above 0.03 µM in assay [1] and not above 1 µM in assay [2].

For `C=CCn1c(=O)c2cnc(Nc3cc(F)cc(N4CCNCC4)c3)nc2n1-c1ccc(=O)n(C(C)C)n1` [Compound 71], the figures for the IC50 in assay [1] and in assay [2] were not above 0.03 µM and not above 1 µM, respectively.

`Cc1cc(Nc2ncc3c(=O)n(C(C)C)n(-c4ccc(=O)n(C(C)(C)C)c4)c3n2)ccc1N1CCN(C)CC1` [Compound 335]: the IC50 is not above 0.03 µM in assay [1] and not above 1 µM in assay [2].

In the case of `C=CCn1c(=O)c2cnc(Nc3ccc(N4CCN(C)CC4)cc3)nc2n1-c1ccc(=O)n(C(C)CC)n1` (stereo not drawn) [Compound 5], the IC50 in assay [1] is not above 0.03 µM; in assay [2], not above 1 µM.

In the case of `CCn1c(=O)c2cnc(Nc3ccc(C4CCN(C)CC4)c(C)c3)nc2n1-c1cc(F)c(=O)n(C(C)C)c1` [Compound 317], the figures for the IC50 in assay [1] and in assay [2] were not above 0.03 µM and not above 1 µM, respectively.

As for `CCn1c(=O)c2cnc(Nc3ccc(C4CCN(C)CC4)c(C)c3)nc2n1-c1ccc(=O)n(C(C)(C)C)c1` [Compound 332], the IC50 in assay [1] is not above 0.03 µM; in assay [2] it was not above 1 µM.

Consider `C=CCn1c(=O)c2cnc(Nc3ccc(N4CC5(CCN(C)C5)C4)cc3)nc2n1-c1ccc(=O)n(C(C)C)n1` [Compound 163], for which the IC50 in assay [1] was not above 0.03 µM; in assay [2] it was not above 1 µM.

As to `C=CCn1c(=O)c2cnc(Nc3ccc(N4CCC(N(C)C)CC4)cc3)nc2n1-c1ccc(=O)n(C(C)C)n1` [Compound 98], the results for the IC50 in assay [1] and in assay [2] were not above 0.03 µM and not above 1 µM, respectively.

For `C=CCn1c(=O)c2cnc(Nc3ccc4c(c3)C3(CC3)CN(C)C4)nc2n1-c1ccc(=O)n(C(C)C)n1` [Compound 235], the IC50 in assay [1] is not above 0.03 µM; in assay [2] it was not above 1 µM.

Regarding `C=CCn1c(=O)c2cnc(Nc3ccc(N4CCN(C)CC4)cc3)nc2n1-c1cc(F)c(=O)n(C(C)C)c1` [Compound 24], the IC50 in assay [1] was not above 0.03 µM; in assay [2], not above 1 µM.

Take `C=CCn1c(=O)c2cnc(Nc3ccc4c(C5CCN(C(C)C)CC5)cn(C)c4c3)nc2n1-c1ccc(=O)n(C(C)C)n1` [Compound 268]: the IC50 in assay [1] is not above 0.03 µM; in assay [2], not above 1 µM.

Regarding `C=CCn1c(=O)c2cnc(Nc3ccc(N4CCC(N5CCC5)CC4)c(C)c3)nc2n1-c1ccc(=O)n(C(C)C)n1` [Compound 87], the IC50 is not above 0.03 µM in assay [1] and not above 1 µM in assay [2].

With `C=CCn1c(=O)c2cnc(Nc3ccc(N4CCN(C)CC4)c(OC)c3)nc2n1-c1ccc(=O)n(C(C)C)c1` [Compound 48], the figures for the IC50 in assay [1] and in assay [2] were not above 0.03 µM and not above 1 µM, respectively.

In the case of `C=CCn1c(=O)c2cnc(Nc3cc(F)cc(C4CCNCC4)c3)nc2n1-c1ccc(=O)n(C(C)C)n1` [Compound 208], the concentration for half-maximal inhibition (IC50) in assay [1] was not above 0.03 µM; in assay [2], not above 1 µM.

Regarding `C=CCn1c(=O)c2cnc(Nc3ccc4cc(N5CCN(C)CC5)cnc4c3)nc2n1-c1ccc(=O)n(C(C)C)n1` [Compound 219], the figures for the IC50 in assay [1] and in assay [2] were not above 0.03 µM and not above 1 µM, respectively.

For the compound `C=CCn1c(=O)c2cnc(Nc3ccc(N4CCN(C)CC4)cc3)nc2n1-c1ccc(=O)n(C(C)(C)C)n1` [Compound 9], the concentration for half-maximal inhibition (IC50) is not above 0.03 µM in assay [1] and not above 1 µM in assay [2].

`C=CCn1c(=O)c2cnc(Nc3ccc(N4CC(N5CCCC5)C4)cc3)nc2n1-c1ccc(=O)n(C(C)C)n1` [Compound 83]: the IC50 in assay [1] is not above 0.03 µM; in assay [2] it was not above 1 µM.

As to `C=CCn1c(=O)c2cnc(Nc3ccc(N4CC(N5CCC5)C4)cc3)nc2n1-c1ccc(=O)n(C(C)C)n1` [Compound 80], the IC50 in assay [1] was not above 0.03 µM; in assay [2] it was 1 to 3 µM.

As to `C=CCn1c(=O)c2cnc(Nc3ccc(N4CC5(CCN(C)C5)C4)c(C)c3)nc2n1-c1ccc(=O)n(C(C)C)n1` [Compound 164], the IC50 is not above 0.03 µM in assay [1] and not above 1 µM in assay [2].

Take `C=CCn1c(=O)c2cnc(Nc3cc(OC)cc(N4CCNCC4)c3)nc2n1-c1ccc(=O)n(C(C)C)n1` [Compound 76]: the values for the IC50 in assay [1] and in assay [2] were not above 0.03 µM and not above 1 µM, respectively.

Take `C=CCn1c(=O)c2cnc(Nc3ccc(N4CCC(NC)CC4)c(OC)c3)nc2n1-c1ccc(=O)n(C(C)C)n1` [Compound 106]: the IC50 was not above 0.03 µM in assay [1] and not above 1 µM in assay [2].

Regarding `C=CCn1c(=O)c2cnc(Nc3ccc4c(c3)CN(C(C)C)CC4(F)F)nc2n1-c1ccc(=O)n(C(C)C)n1` [Compound 242], the IC50 in assay [1] is not above 0.03 µM; in assay [2], not above 1 µM.

For the compound `C=CCn1c(=O)c2cnc(Nc3ccc4c(N5CCC(N(C)C)CC5)c[nH]c4c3)nc2n1-c1ccc(=O)n(C(C)C)n1` [Compound 263], the half-maximal inhibitory concentration (IC50) in assay [1] was not above 0.03 µM; in assay [2], not above 1 µM.

For the compound `C=CCn1c(=O)c2cnc(Nc3ccc(N4CC(N5CCCC5)C4)c(OC)c3)nc2n1-c1ccc(=O)n(C(C)C)n1` [Compound 85], the IC50 is not above 0.03 µM in assay [1] and not above 1 µM in assay [2].

Turning to `C=CCn1c(=O)c2cnc(Nc3ccc4c(c3)C(C)(C)CNC4)nc2n1-c1ccc(=O)n(C(C)C)n1` [Compound 243], the results for the IC50 in assay [1] and in assay [2] were not above 0.03 µM and not above 1 µM, respectively.

Consider `C=CCn1c(=O)c2cnc(Nc3ccc(N4CC5(CN(C)C5)C4)cc3)nc2n1-c1ccc(=O)n(C(C)C)n1` [Compound 157], for which the IC50 is not above 0.03 µM in assay [1] and not above 1 µM in assay [2].

Take `CCn1c(=O)c2cnc(Nc3ccc4c(c3)CN(C)CC43CC3)nc2n1-c1ccc(=O)n(C(C)C)n1` [Compound 277]: the IC50 in assay [1] was not above 0.03 µM; in assay [2], not above 1 µM.

For the compound `C=CCn1c(=O)c2cnc(Nc3ccc(OCCN(C)C)cc3)nc2n1-c1ccc(=O)n(C(C)C)n1` [Compound 216], the results for the IC50 in assay [1] and in assay [2] were not above 0.03 µM and not above 1 µM, respectively.

Consider `C=CCn1c(=O)c2cnc(Nc3cc(N4CCC(N(C)C)CC4)c4cc[nH]c4c3)nc2n1-c1ccc(=O)n(C(C)C)n1` [Compound 254], for which the figures for the IC50 in assay [1] and in assay [2] were not above 0.03 µM and not above 1 µM, respectively.

For the compound `C=CCn1c(=O)c2cnc(Nc3ccc(N4CC5(CCCN5C)C4)c(C)c3)nc2n1-c1ccc(=O)n(C(C)C)n1` [Compound 188], the IC50 in assay [1] is not above 0.03 µM; in assay [2], not above 1 µM.

As to `C=CCn1c(=O)c2cnc(Nc3ccc(N4CC5(CN(C)C5)C4)c(C)c3)nc2n1-c1ccc(=O)n(C(C)C)n1` [Compound 158], the IC50 is not above 0.03 µM in assay [1] and not above 1 µM in assay [2].

As to `C=CCn1c(=O)c2cnc(Nc3ccc(N4CCN(C)CC4)cc3)nc2n1-c1ccc(=O)n(C(C)(C)CO)n1` [Compound 18], the IC50 in assay [1] was not above 0.03 µM; in assay [2] it was 1 to 3 µM.

In the case of `Cc1cc(Nc2ncc3c(=O)n(C(C)C)n(-c4ccc(=O)n(C(C)(C)C)n4)c3n2)ccc1C1CCN(C)CC1` [Compound 290], the IC50 in assay [1] is not above 0.03 µM; in assay [2] it was not above 1 µM.
